Laboratory results taken from US20070117743A1, “New antitumoral compounds” (priority 2003, published 2007).
Where a SMILES comes first, the peptide text is derived from it. Bridges are numbered along the chain shown (N, C = ends). [ ]: non-standard residue; d: D form. The star is where a group is joined. d(aIle) = CC[C@H](C)[C@@H](N)C(=O)O; d(aThr) = C[C@@H](O)[C@@H](N)C(=O)O; hCha = N[C@@H](CCC1CCCCC1)C(=O)O; Hexanoyl(5-Me) = CC(C)CCCC(=O)*; Orn = NCCC[C@H](N)C(=O)O; Dhb = C/C=C(\N)C(=O)O

What was measured:
Type in all cases: cell-based, human
A-549 = test: SRB colorimetric assay of cell growth and viability, A-549; conditions: 48 hours exposure; for GI50: read-out: GI50 A-549; for CC50: read-out: LC50 A-549
SK-MEL-28 = test: SRB colorimetric assay of cell growth and viability, SK-MEL-28; conditions: 48 hours exposure; for CC50: read-out: LC50 MEL-28
HT-29 = test: SRB colorimetric assay of cell growth and viability, HT-29; conditions: 48 hours exposure; for GI50: read-out: GI50 HT-29; for CC50: read-out: LC50 HT-29
LoVo = test: SRB colorimetric assay of cell growth and viability, LoVo; conditions: 48 hours exposure; for CC50: read-out: LC50 LOVO
LoVo-Dox = test: SRB colorimetric assay of cell growth and viability, LoVo-Dox; conditions: 48 hours exposure; for CC50: read-out: LC50 LOVO-DOX
Procedure, shortened: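 Tumor cells are continuously exposed to sample for 48 hours, with vehicle DMSO:EtOH:PBS (0.5:0.5:99), after an 18-hour drug-free attachment period. Bound SRB, measured at 490 nm, reflects cell mass; GI, TGI and LC are derived from triplicate means.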

DU-145 = test: SRB colorimetric assay of cell growth and viability, DU-145; conditions: 48 hours exposure
LNCaP = test: SRB colorimetric assay of cell growth and viability, LNCaP; conditions: 48 hours exposure; for GI50: read-out: GI50 LN-caP; for CC50: read-out: LC50 LN-caP
SK-BR-3 = test: SRB colorimetric assay of cell growth and viability, SK-BR-3; conditions: 48 hours exposure
IGROV-1 = test: SRB colorimetric assay of cell growth and viability, IGROV-1; conditions: 48 hours exposure
IGROV-ET = test: SRB colorimetric assay of cell growth and viability, IGROV-ET; conditions: 48 hours exposure; for CC50: read-out: LC50 IGROV-ET
HeLa = test: SRB colorimetric assay of cell growth and viability, HeLa; conditions: 48 hours exposure; for CC50: read-out: LC50 HELA
HeLa-APL = test: SRB colorimetric assay of cell growth and viability, HeLa-APL; conditions: 48 hours exposure; for CC50: read-out: LC50 HELA-APL
K-562 = test: SRB colorimetric assay of cell growth and viability, K-562; conditions: 48 hours exposure; for CC50: read-out: LC50 K-562
PANC-1 = test: SRB colorimetric assay of cell growth and viability, PANC-1; conditions: 48 hours exposure; for CC50: read-out: LC50 PANC-1

Compound: C/C=C1\NC(=O)[C@H](Cc2ccccc2)NC(=O)[C@@H](C(C)C)NC(=O)[C@@H]([C@@H](C)CC)NC(=O)[C@H](NC(=O)[C@H](NC(=O)[C@H](CCCN)NC(=O)[C@H]2CCCN2C(=O)[C@H](NC(=O)[C@@H](NC(=O)[C@H](NC(=O)[C@H](NC(=O)CCCC(C)C)C(C)C)[C@H](C)O)C(C)C)C(C)C)[C@@H](C)CC)[C@@H](C)OC(=O)[C@H](C(C)C)NC1=O [Compound 7, [D-Thr^12]-KF]
- TGI A-549 (A-549): 6.77E−06 Molar
- GI50 (A-549): ≥ 6770 nM
- CC50 (A-549): ≥ 6770 nM
- GI50 (SK-MEL-28): ≥ 6770 nM
- TGI MEL-28 (SK-MEL-28): 6.77E−06 Molar
- CC50 (SK-MEL-28): ≥ 6770 nM
- TGI HT-29 (HT-29): 6.77E−06 Molar
- GI50 (HT-29): ≥ 6770 nM
- CC50 (HT-29): ≥ 6770 nM
- GI50 (LoVo): ≥ 6770 nM
- TGI LOVO (LoVo): 6.77E−06 Molar
- CC50 (LoVo): ≥ 6770 nM
- GI50 (LoVo-Dox): 5140 nM
- TGI LOVO-DOX (LoVo-Dox): 6.77E−06 Molar
- CC50 (LoVo-Dox): ≥ 6770 nM
- GI50 (DU-145): ≥ 6770 nM
- LC50 (concentration causing 50% net cell kill) (DU-145): ≥ 6770 nM
- TGI DU-145 (DU-145): 6.77E−06 Molar
- TGI LN-caP (LNCaP): 6.77E−06 Molar
- GI50 (LNCaP): 6040 nM
- CC50 (LNCaP): ≥ 6770 nM
- GI50 (SK-BR-3): ≥ 6770 nM
- LC50 (SK-BR-3): ≥ 6770 nM
- TGI SK-BR-3 (SK-BR-3): 6.77E−06 Molar
- GI50 (IGROV-1): ≥ 6770 nM
- LC50 (concentration causing 50% net cell killing) (IGROV-1): ≥ 6770 nM
- TGI IGROV (IGROV-1): 6.77E−06 Molar
- GI50 (IGROV-ET): ≥ 6770 nM
- TGI IGROV-ET (IGROV-ET): 6.77E−06 Molar
- CC50 (IGROV-ET): ≥ 6770 nM
- GI50 (HeLa): ≥ 6770 nM
- TGI HELA (HeLa): 6.77E−06 Molar
- CC50 (HeLa): ≥ 6770 nM
- GI50 (HeLa-APL): ≥ 6770 nM
- TGI HELA-APL (HeLa-APL): 6.77E−06 Molar
- CC50 (HeLa-APL): ≥ 6770 nM
- GI50 (K-562): ≥ 6770 nM
- TGI K-562 (K-562): 6.77E−06 Molar
- CC50 (K-562): ≥ 6770 nM
- GI50 (PANC-1): ≥ 6770 nM
- TGI PANC-1 (PANC-1): 6.77E−06 Molar
- CC50 (PANC-1): ≥ 6770 nM

Compound: C/C=C1\NC(=O)[C@H](Cc2ccccc2)NC(=O)[C@@H](C(C)C)NC(=O)[C@@H]([C@@H](C)CC)NC(=O)[C@H](NC(=O)[C@H](NC(=O)[C@H](CCCN)NC(=O)[C@H]2CCCN2C(=O)[C@H](NC(=O)[C@@H](NC(=O)[C@@H](NC(=O)[C@@H](CC2CCCCC2)NC(=O)CCCC(C)C)[C@@H](C)O)C(C)C)C(C)C)[C@@H](C)CC)[C@@H](C)OC(=O)[C@H](C(C)C)NC1=O [Compound 8, [D-Cha^13]-KF]
- TGI A-549 (A-549): 4.18E−06 Molar
- GI50 (A-549): 1970 nM
- CC50 (A-549): 6530 nM
- GI50 (SK-MEL-28): 1450 nM
- TGI MEL-28 (SK-MEL-28): 2.42E−06 Molar
- CC50 (SK-MEL-28): 4020 nM
- TGI HT-29 (HT-29): 1.99E−06 Molar
- GI50 (HT-29): 992 nM
- CC50 (HT-29): 3990 nM
- GI50 (LoVo): 1010 nM
- TGI LOVO (LoVo): 1.96E−06 Molar
- CC50 (LoVo): 3820 nM
- GI50 (LoVo-Dox): 986 nM
- TGI LOVO-DOX (LoVo-Dox): 2.09E−06 Molar
- CC50 (LoVo-Dox): 4430 nM
- GI50 (DU-145): 1330 nM
- LC50 (concentration causing 50% net cell kill) (DU-145): 4260 nM
- TGI DU-145 (DU-145): 2.38E−06 Molar
- TGI LN-caP (LNCaP): 6.53E−06 Molar
- GI50 (LNCaP): 2790 nM
- CC50 (LNCaP): 6530 nM
- GI50 (SK-BR-3): 484 nM
- LC50 (SK-BR-3): 3170 nM
- TGI SK-BR-3 (SK-BR-3): 1.25E−06 Molar
- GI50 (IGROV-1): 1040 nM
- LC50 (concentration causing 50% net cell killing) (IGROV-1): 4290 nM
- TGI IGROV (IGROV-1): 2.11E−06 Molar
- GI50 (IGROV-ET): 652 nM
- TGI IGROV-ET (IGROV-ET): 1.44E−06 Molar
- CC50 (IGROV-ET): 3160 nM
- GI50 (HeLa): 1400 nM
- TGI HELA (HeLa): 2.30E−06 Molar
- CC50 (HeLa): 3800 nM
- GI50 (HeLa-APL): 1700 nM
- TGI HELA-APL (HeLa-APL): 2.87E−06 Molar
- CC50 (HeLa-APL): 4860 nM
- GI50 (K-562): 1930 nM
- TGI K-562 (K-562): 4.92E−06 Molar
- CC50 (K-562): 6530 nM
- GI50 (PANC-1): 6530 nM
- TGI PANC-1 (PANC-1): 6.53E−06 Molar
- CC50 (PANC-1): 6530 nM

Compound: C/C=C1\NC(=O)[C@H](Cc2ccccc2)NC(=O)[C@@H](C(C)C)NC(=O)[C@@H]([C@@H](C)CC)NC(=O)[C@H](NC(=O)[C@H](NC(=O)[C@H](CCCN)NC(=O)[C@H]2CCCN2C(=O)[C@H](NC(=O)[C@H](CCC2CCCCC2)NC(=O)[C@@H](NC(=O)[C@H](NC(=O)CCCC(C)C)C(C)C)[C@@H](C)O)C(C)C)[C@@H](C)CC)[C@@H](C)OC(=O)[C@H](C(C)C)NC1=O [Compound 9, [hCh^11]-KF] ({Hexanoyl(5-Me)}-[dV]T[hCha][dV][dP][Orn][d(aIle)][d(aThr)][d(aIle)][dV]F[Dhb]V; ester 8-C)
- TGI A-549 (A-549): 4.48E−07 Molar
- GI50 (A-549): 184 nM
- CC50 (A-549): 1640 nM
- GI50 (SK-MEL-28): 321 nM
- TGI MEL-28 (SK-MEL-28): 9.44E−07 Molar
- CC50 (SK-MEL-28): 2620 nM
- TGI HT-29 (HT-29): 1.92E−07 Molar
- GI50 (HT-29): 86 nM
- CC50 (HT-29): 429 nM
- GI50 (LoVo): 95.7 nM
- TGI LOVO (LoVo): 1.93E−07 Molar
- CC50 (LoVo): 390 nM
- GI50 (LoVo-Dox): 50.7 nM
- TGI LOVO-DOX (LoVo-Dox): 1.30E−07 Molar
- CC50 (LoVo-Dox): 305 nM
- GI50 (DU-145): 455 nM
- LC50 (concentration causing 50% net cell kill) (DU-145): 3280 nM
- TGI DU-145 (DU-145): 1.24E−06 Molar
- TGI LN-caP (LNCaP): 2.33E−06 Molar
- GI50 (LNCaP): 925 nM
- CC50 (LNCaP): 5850 nM
- GI50 (SK-BR-3): 149 nM
- LC50 (SK-BR-3): 1360 nM
- TGI SK-BR-3 (SK-BR-3): 3.66E−07 Molar
- GI50 (IGROV-1): 237 nM
- LC50 (concentration causing 50% net cell killing) (IGROV-1): 3310 nM
- TGI IGROV (IGROV-1): 7.76E−07 Molar
- GI50 (IGROV-ET): 278 nM
- TGI IGROV-ET (IGROV-ET): 8.09E−07 Molar
- CC50 (IGROV-ET): 2940 nM
- GI50 (HeLa): 356 nM
- TGI HELA (HeLa): 1.12E−06 Molar
- CC50 (HeLa): 2920 nM
- GI50 (HeLa-APL): 391 nM
- TGI HELA-APL (HeLa-APL): 1.20E−06 Molar
- CC50 (HeLa-APL): 2750 nM
- GI50 (K-562): 1720 nM
- TGI K-562 (K-562): 3.39E−06 Molar
- CC50 (K-562): 6470 nM
- GI50 (PANC-1): 2250 nM
- TGI PANC-1 (PANC-1): 5.27E−06 Molar
- CC50 (PANC-1): 6470 nM
